Test results reported in patent US12435044B2, “Pyridazinone herbicides and pyridazinone intermediates used to prepare a herbicide” (FMC Corporation, priority 2018, dated 2025).

Tests used:
Type in all cases: in vivo
[1] = system: common ragweed (AMBEL; Ambrosia artemisiifolia); assay: Test I pre-/postemergence, mixtures of Cpd. No. 20 with saflufenacil or pyroxasulfone; details: for Plant response rating (0 to 100 scale): AMBEL
Excerpt: (§1) This test evaluated the effect of mixtures of Cpd. No. 20 with saflufenacil or pyroxasulfone on several plant species. Seeds of plant species selected from corn (ZEAMD; Zea mays, cv. ‘Pioneer 1184’), soybean (GLXMA; Glycine max, cv. Pioneer 35T58), giant foxtail (SETFA; Setaria faberi), palmer amaranth (AMAPA; Amaranthus palmeri), common waterhemp (AMATU; Amaranthus rudis), mare's tail (ERICA; Conyza canadensis), and common ragweed (AMBEL; Ambrosia artemisiifolia) were planted in pots containing Tama Silt Loam soil and treated preemergence with a directed soil spray using test chemicals formulated in a non-phytotoxic solvent mixture which included a surfactant.
(§2) At the same time, plants selected from these crop and weed species were planted in pots containing Redi-Earth® planting medium (Scotts Company, 14111 Scottslawn Road, Marysville, Ohio 43041) comprising spaghnum peat moss, vermiculite, wetting agent and starter nutrients and treated postemergence with test chemicals formulated in the same manner. Plants ranged in height from 2 to 10 cm and were in the one- to two-leaf stage for the postemergence treatment. Treated plants and untreated controls were maintained in a greenhouse for approximately 14-21 d, after which time all treated plants were compared to untreated controls and visually evaluated for injury. Plant response ratings, summarized in Tables 11 to 14, are based on a 0 to 100 scale where 0 is no effect and 100 is complete control. A dash (-) response means no test result. Test results are presented as a mean of 4 reps.

[2] = system: common waterhemp (AMATU; Amaranthus rudis); assay: as above; details: for Plant response rating (0 to 100 scale): AMATU
Excerpt: as §1, §2

[3] = system: giant foxtail (SETFA; Setaria faberi); assay: as above; details: for Plant response rating (0 to 100 scale): SETFA
Excerpt: as §1, §2

[4] = system: soybean (GLXMA; Glycine max, cv. Pioneer 35T58); assay: as above; details: for Plant response rating (0 to 100 scale): GLXMA
Excerpt: as §1, §2

[5] = system: common ragweed (AMBEL; Ambrosia artemisiifolia); assay: Test J pre-/postemergence, mixtures of Cpd. No. 20 with (b15C2)
Excerpt: as §1, with “(b15C2)” for “saflufenacil or pyroxasulfone”
as §2, with “J1 & J2,” for “11 to 14,”

[6] = system: corn (ZEAMD; Zea mays, cv. ‘Pioneer 1184’); assay: as above
Excerpt: as §1, with “(b15C2)” for “saflufenacil or pyroxasulfone”
as §2, with “J1 & J2,” for “11 to 14,”

[7] = system: mare's tail (ERICA; Conyza canadensis); assay: as above
Excerpt: as §1, with “(b15C2)” for “saflufenacil or pyroxasulfone”
as §2, with “J1 & J2,” for “11 to 14,”

[8] = system: soybean (GLXMA; Glycine max, cv. Pioneer 35T58); assay: as above
Excerpt: as §1, with “(b15C2)” for “saflufenacil or pyroxasulfone”
as §2, with “J1 & J2,” for “11 to 14,”

[9] = Preemergence, Cpd. No. 20 8 g a.i./ha alone
[10] = preemergence, Cpd. No. 20 16 g a.i./ha alone
[11] = preemergence, Cpd. No. 20 31 g a.i./ha alone
[12] = preemergence, Cpd. No. 20 62 g a.i./ha alone

Cc1ccc2ccc(C)c(-c3c(O)c(Cl)nn(C)c3=O)c2c1 [Cpd. No. 20, 6-chloro-4-(2,7-dimethyl-1-naphthalenyl)-5-hydroxy-2-methyl-3(2H)-pyridazinone]
Plant response rating (0 to 100 scale) [1, 9]: 0
AMBEL plant response rating, 0 to 100 scale ([1]; postemergence, 8 g a.i./ha): 86
AMBEL plant response rating, 0 to 100 scale ([1]; postemergence, 16 g a.i./ha): 90
AMBEL plant response rating, 0 to 100 scale ([1]; postemergence, 31 g a.i./ha): 100
AMBEL plant response rating, 0 to 100 scale ([1]; postemergence, 62 g a.i./ha): 94
AMBEL plant response rating, 0 to 100 scale ([1]; preemergence, 8 g a.i./ha): 0
AMBEL plant response rating, 0 to 100 scale ([1]; preemergence, 16 g a.i./ha): 10
AMBEL plant response rating, 0 to 100 scale ([1]; preemergence, 31 g a.i./ha): 69
AMBEL plant response rating, 0 to 100 scale ([1]; preemergence, 62 g a.i./ha): 98
Plant response rating (0 to 100 scale) [1, 10]: 10
Plant response rating (0 to 100 scale) [1, 11]: 69
Plant response rating (0 to 100 scale) [1, 12]: 98
Plant response rating (0 to 100 scale) [2, 9]: 0
AMATU plant response rating, 0 to 100 scale ([2]; postemergence, 8 g a.i./ha): 50
AMATU plant response rating, 0 to 100 scale ([2]; postemergence, 16 g a.i./ha): 59
AMATU plant response rating, 0 to 100 scale ([2]; postemergence, 31 g a.i./ha): 81
AMATU plant response rating, 0 to 100 scale ([2]; postemergence, 62 g a.i./ha): 83
AMATU plant response rating, 0 to 100 scale ([2]; preemergence, 8 g a.i./ha): 0
AMATU plant response rating, 0 to 100 scale ([2]; preemergence, 16 g a.i./ha): 0
AMATU plant response rating, 0 to 100 scale ([2]; preemergence, 31 g a.i./ha): 0
AMATU plant response rating, 0 to 100 scale ([2]; preemergence, 62 g a.i./ha): 80
Plant response rating (0 to 100 scale) [2, 10]: 0
Plant response rating (0 to 100 scale) [2, 11]: 0
Plant response rating (0 to 100 scale) [2, 12]: 80
Plant response rating (0 to 100 scale) [3, 9]: 25
SETFA plant response rating, 0 to 100 scale ([3]; postemergence, 8 g a.i./ha): 55
SETFA plant response rating, 0 to 100 scale ([3]; postemergence, 16 g a.i./ha): 80
SETFA plant response rating, 0 to 100 scale ([3]; postemergence, 31 g a.i./ha): 76
SETFA plant response rating, 0 to 100 scale ([3]; postemergence, 62 g a.i./ha): 78
SETFA plant response rating, 0 to 100 scale ([3]; preemergence, 8 g a.i./ha): 25
SETFA plant response rating, 0 to 100 scale ([3]; preemergence, 16 g a.i./ha): 39
SETFA plant response rating, 0 to 100 scale ([3]; preemergence, 31 g a.i./ha): 84
SETFA plant response rating, 0 to 100 scale ([3]; preemergence, 62 g a.i./ha): 99
Plant response rating (0 to 100 scale) [3, 10]: 39
Plant response rating (0 to 100 scale) [3, 11]: 84
Plant response rating (0 to 100 scale) [3, 12]: 99
Plant response rating (0 to 100 scale) [4, 9]: 0
GLXMA plant response rating, 0 to 100 scale ([4]; postemergence, 8 g a.i./ha): 0
GLXMA plant response rating, 0 to 100 scale ([4]; postemergence, 16 g a.i./ha): 0
GLXMA plant response rating, 0 to 100 scale ([4]; postemergence, 31 g a.i./ha): 15
GLXMA plant response rating, 0 to 100 scale ([4]; postemergence, 62 g a.i./ha): 16
GLXMA plant response rating, 0 to 100 scale ([4]; preemergence, 8 g a.i./ha): 0
GLXMA plant response rating, 0 to 100 scale ([4]; preemergence, 16 g a.i./ha): 0
GLXMA plant response rating, 0 to 100 scale ([4]; preemergence, 31 g a.i./ha): 0
GLXMA plant response rating, 0 to 100 scale ([4]; preemergence, 62 g a.i./ha): 0
Plant response rating (0 to 100 scale) [4, 10]: 0
Plant response rating (0 to 100 scale) [4, 11]: 0
Plant response rating (0 to 100 scale) [4, 12]: 0
AMBEL plant response rating, 0 to 100 scale ([5]; postemergence, 8 g a.i./ha): 86
AMBEL plant response rating, 0 to 100 scale ([5]; postemergence, 16 g a.i./ha): 93
AMBEL plant response rating, 0 to 100 scale ([5]; postemergence, 31 g a.i./ha): 91
AMBEL plant response rating, 0 to 100 scale ([5]; postemergence, 62 g a.i./ha): 95
AMBEL plant response rating, 0 to 100 scale ([5]; preemergence, 8 g a.i./ha): 0
AMBEL plant response rating, 0 to 100 scale ([5]; preemergence, 16 g a.i./ha): 100
AMBEL plant response rating, 0 to 100 scale ([5]; preemergence, 31 g a.i./ha): 86
AMBEL plant response rating, 0 to 100 scale ([5]; preemergence, 62 g a.i./ha): 96
ZEAMD plant response rating, 0 to 100 scale ([6]; postemergence, 8 g a.i./ha): 0
ZEAMD plant response rating, 0 to 100 scale ([6]; postemergence, 16 g a.i./ha): 0
ZEAMD plant response rating, 0 to 100 scale ([6]; postemergence, 31 g a.i./ha): 0
ZEAMD plant response rating, 0 to 100 scale ([6]; postemergence, 62 g a.i./ha): 0
ZEAMD plant response rating, 0 to 100 scale ([6]; preemergence, 8 g a.i./ha): 0
ZEAMD plant response rating, 0 to 100 scale ([6]; preemergence, 16 g a.i./ha): 0
ZEAMD plant response rating, 0 to 100 scale ([6]; preemergence, 31 g a.i./ha): 0
ZEAMD plant response rating, 0 to 100 scale ([6]; preemergence, 62 g a.i./ha): 0
ERICA plant response rating, 0 to 100 scale ([7]; postemergence, 8 g a.i./ha): 85
ERICA plant response rating, 0 to 100 scale ([7]; postemergence, 16 g a.i./ha): 90
ERICA plant response rating, 0 to 100 scale ([7]; postemergence, 31 g a.i./ha): 90
ERICA plant response rating, 0 to 100 scale ([7]; postemergence, 62 g a.i./ha): 90
ERICA plant response rating, 0 to 100 scale ([7]; preemergence, 8 g a.i./ha): 58
ERICA plant response rating, 0 to 100 scale ([7]; preemergence, 16 g a.i./ha): 90
ERICA plant response rating, 0 to 100 scale ([7]; preemergence, 31 g a.i./ha): 94
ERICA plant response rating, 0 to 100 scale ([7]; preemergence, 62 g a.i./ha): 95
GLXMA plant response rating, 0 to 100 scale ([8]; postemergence, 8 g a.i./ha): 3
GLXMA plant response rating, 0 to 100 scale ([8]; postemergence, 16 g a.i./ha): 4
GLXMA plant response rating, 0 to 100 scale ([8]; postemergence, 31 g a.i./ha): 9
GLXMA plant response rating, 0 to 100 scale ([8]; postemergence, 62 g a.i./ha): 6
GLXMA plant response rating, 0 to 100 scale ([8]; preemergence, 8 g a.i./ha): 0
GLXMA plant response rating, 0 to 100 scale ([8]; preemergence, 16 g a.i./ha): 0
GLXMA plant response rating, 0 to 100 scale ([8]; preemergence, 31 g a.i./ha): 0
GLXMA plant response rating, 0 to 100 scale ([8]; preemergence, 62 g a.i./ha): 20
